Results from ChEMBL document CHEMBL5465560, “Selectivity Literature for EUbOPEN Chemogenomic Library” (2024).
Each block holds one compound with its values, some of them ahead of it.

Key:
[1] = target: Dual specificity tyrosine-phosphorylation-regulated kinase 1B (Homo sapiens, UniProt Q9Y463); experiment: Selectivity interaction (Enzymatic assay (Eurofins)) EUB0001049a DYRK1B
[2] = target: Ribosomal protein S6 kinase beta-1 (Homo sapiens, UniProt P23443); experiment: Selectivity interaction (Kinase panel (Invitrogen)) EUB0000639a RPS6KB1; conditions: at 200 nM
[3] = target: Epidermal growth factor receptor (Homo sapiens, UniProt P00533); experiment: Selectivity interaction (Rxn Biology Kinase assay) EUB0001632a EGFR; conditions: at 10 µM
[4] = target: Proto-oncogene tyrosine-protein kinase Src (Homo sapiens, UniProt P12931); conditions: at 10 µM
[5] = target: Aurora kinase B (Homo sapiens, UniProt Q96GD4); conditions: at 10 µM
[6] = target: Mitogen-activated protein kinase 10 (Homo sapiens, UniProt P53779); experiment: Selectivity interaction (KinomeScan (DiscoverX)) EUB0001079a MAPK10; conditions: at 1 µM
[7] = target: G protein-coupled receptor kinase 4 (Homo sapiens) (UniProt P32298); experiment: Selectivity interaction (SelectScreen profiling (Invitrogen)) EUB0000607a GRK4; conditions: at 2 µM
[8] = target: T1, Serine/threonine-protein kinase NLK (Homo sapiens) (UniProt Q9UBE8); experiment: Selectivity interaction (KinomeScan (DiscoverX)) EUB0000607a NLK; conditions: at 10 µM
T1 sequence (whole entry): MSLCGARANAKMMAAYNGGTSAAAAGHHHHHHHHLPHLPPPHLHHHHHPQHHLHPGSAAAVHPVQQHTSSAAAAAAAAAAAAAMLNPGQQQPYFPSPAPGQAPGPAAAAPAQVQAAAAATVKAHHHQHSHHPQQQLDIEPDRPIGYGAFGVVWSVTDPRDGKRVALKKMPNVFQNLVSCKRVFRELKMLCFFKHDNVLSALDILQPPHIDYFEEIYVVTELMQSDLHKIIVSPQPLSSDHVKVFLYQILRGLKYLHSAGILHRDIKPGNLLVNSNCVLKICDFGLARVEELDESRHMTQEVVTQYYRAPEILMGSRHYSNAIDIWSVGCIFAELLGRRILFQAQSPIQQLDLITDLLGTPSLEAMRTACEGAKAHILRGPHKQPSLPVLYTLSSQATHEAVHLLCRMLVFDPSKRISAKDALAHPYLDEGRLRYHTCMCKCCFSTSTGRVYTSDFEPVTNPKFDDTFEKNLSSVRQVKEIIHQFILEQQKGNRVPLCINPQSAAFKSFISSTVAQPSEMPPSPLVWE

[9] = target: Dual specificity testis-specific protein kinase 1 (Homo sapiens) (UniProt Q15569); experiment: Selectivity interaction (KinomeScan (DiscoverX)) EUB0000607a TESK1; conditions: at 10 µM
[10] = target: T2, Mitogen-activated protein kinase kinase kinase 2 (Homo sapiens) (UniProt Q9Y2U5); experiment: Selectivity interaction (Kinase panel (KiNativ target engagement assay in Jurkat cells)) EUB0001635a MAP3K2; assay type: cell-based; conditions: at 1 µM
T2 sequence (whole entry): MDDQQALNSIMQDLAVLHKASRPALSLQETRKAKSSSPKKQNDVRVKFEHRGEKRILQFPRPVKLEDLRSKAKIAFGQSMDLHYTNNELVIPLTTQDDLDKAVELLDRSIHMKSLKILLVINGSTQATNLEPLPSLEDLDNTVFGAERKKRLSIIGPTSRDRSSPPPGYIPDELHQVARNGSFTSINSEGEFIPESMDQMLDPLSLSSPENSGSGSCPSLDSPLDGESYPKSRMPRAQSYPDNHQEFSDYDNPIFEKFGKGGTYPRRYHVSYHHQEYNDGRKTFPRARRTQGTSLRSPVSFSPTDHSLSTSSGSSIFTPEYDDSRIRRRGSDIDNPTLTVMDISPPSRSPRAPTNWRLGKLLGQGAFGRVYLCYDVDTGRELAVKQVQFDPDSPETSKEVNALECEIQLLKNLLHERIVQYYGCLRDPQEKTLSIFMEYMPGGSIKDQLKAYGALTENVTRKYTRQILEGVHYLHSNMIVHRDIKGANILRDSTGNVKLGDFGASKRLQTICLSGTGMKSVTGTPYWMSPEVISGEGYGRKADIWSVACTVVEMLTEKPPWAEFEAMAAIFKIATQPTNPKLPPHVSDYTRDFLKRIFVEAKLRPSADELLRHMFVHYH

Sequence of Epidermal growth factor receptor (P00533 whole entry): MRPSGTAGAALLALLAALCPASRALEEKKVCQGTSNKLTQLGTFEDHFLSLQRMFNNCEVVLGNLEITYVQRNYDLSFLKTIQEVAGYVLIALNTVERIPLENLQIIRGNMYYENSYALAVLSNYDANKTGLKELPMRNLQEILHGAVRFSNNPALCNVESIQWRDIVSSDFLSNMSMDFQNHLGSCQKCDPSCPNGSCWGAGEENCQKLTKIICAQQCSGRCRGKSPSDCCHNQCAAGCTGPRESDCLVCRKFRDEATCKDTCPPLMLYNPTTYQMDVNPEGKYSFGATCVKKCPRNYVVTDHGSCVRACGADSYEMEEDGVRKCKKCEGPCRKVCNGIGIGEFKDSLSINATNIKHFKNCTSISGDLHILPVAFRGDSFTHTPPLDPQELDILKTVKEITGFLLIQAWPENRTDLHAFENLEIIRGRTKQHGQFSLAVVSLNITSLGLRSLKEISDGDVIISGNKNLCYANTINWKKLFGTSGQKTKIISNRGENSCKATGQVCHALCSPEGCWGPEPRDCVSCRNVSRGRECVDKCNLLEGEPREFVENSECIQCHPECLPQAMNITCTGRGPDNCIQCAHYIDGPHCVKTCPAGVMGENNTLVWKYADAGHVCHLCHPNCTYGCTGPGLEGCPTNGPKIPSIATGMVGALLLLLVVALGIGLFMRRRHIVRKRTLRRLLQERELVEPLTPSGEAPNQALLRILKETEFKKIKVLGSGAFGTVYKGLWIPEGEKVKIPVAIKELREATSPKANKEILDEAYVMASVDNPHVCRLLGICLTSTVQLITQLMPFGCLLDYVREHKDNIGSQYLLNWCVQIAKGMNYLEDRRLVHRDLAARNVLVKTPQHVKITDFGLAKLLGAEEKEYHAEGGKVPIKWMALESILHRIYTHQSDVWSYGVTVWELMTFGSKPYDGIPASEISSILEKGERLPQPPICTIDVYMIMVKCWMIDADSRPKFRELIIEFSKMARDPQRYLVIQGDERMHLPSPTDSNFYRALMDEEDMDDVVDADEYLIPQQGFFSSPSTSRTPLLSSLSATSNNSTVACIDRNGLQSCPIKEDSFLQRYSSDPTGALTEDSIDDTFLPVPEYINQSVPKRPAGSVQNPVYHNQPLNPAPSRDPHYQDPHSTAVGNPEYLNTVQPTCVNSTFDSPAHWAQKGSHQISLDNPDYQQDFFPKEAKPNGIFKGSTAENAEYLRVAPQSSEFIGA
Sequence of Ribosomal protein S6 kinase beta-1 (P23443 whole entry, looked up): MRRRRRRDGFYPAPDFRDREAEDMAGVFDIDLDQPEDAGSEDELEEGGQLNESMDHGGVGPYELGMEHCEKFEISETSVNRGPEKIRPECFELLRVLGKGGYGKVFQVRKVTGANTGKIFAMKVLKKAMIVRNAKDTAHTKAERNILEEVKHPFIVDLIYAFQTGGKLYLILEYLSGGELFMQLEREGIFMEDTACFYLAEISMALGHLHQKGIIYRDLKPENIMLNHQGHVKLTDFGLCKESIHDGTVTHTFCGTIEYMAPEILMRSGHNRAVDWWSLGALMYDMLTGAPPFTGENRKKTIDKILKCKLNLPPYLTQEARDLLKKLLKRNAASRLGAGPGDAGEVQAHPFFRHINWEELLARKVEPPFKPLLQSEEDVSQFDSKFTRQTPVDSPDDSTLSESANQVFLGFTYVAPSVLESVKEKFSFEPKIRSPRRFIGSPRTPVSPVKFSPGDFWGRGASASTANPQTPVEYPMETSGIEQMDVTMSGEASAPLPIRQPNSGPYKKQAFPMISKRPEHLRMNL
Sequence of G protein-coupled receptor kinase 4 (Homo sapiens) (P32298 whole entry, looked up): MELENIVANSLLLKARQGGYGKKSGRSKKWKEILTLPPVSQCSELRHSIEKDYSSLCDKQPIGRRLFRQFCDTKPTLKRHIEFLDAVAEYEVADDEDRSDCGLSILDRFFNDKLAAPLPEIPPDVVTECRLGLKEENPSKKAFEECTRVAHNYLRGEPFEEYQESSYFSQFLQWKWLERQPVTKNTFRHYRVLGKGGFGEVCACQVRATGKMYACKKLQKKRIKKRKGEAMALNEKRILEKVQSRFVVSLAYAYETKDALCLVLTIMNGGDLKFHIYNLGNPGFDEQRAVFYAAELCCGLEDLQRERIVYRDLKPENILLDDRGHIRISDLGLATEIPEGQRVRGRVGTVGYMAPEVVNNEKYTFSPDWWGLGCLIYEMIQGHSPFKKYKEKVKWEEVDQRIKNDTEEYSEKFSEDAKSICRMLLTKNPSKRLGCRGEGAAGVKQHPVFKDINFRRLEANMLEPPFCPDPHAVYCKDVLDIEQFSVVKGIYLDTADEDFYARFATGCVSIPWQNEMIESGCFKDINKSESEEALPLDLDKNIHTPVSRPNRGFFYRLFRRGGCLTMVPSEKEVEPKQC
Sequence of Dual specificity tyrosine-phosphorylation-regulated kinase 1B (Q9Y463 whole entry): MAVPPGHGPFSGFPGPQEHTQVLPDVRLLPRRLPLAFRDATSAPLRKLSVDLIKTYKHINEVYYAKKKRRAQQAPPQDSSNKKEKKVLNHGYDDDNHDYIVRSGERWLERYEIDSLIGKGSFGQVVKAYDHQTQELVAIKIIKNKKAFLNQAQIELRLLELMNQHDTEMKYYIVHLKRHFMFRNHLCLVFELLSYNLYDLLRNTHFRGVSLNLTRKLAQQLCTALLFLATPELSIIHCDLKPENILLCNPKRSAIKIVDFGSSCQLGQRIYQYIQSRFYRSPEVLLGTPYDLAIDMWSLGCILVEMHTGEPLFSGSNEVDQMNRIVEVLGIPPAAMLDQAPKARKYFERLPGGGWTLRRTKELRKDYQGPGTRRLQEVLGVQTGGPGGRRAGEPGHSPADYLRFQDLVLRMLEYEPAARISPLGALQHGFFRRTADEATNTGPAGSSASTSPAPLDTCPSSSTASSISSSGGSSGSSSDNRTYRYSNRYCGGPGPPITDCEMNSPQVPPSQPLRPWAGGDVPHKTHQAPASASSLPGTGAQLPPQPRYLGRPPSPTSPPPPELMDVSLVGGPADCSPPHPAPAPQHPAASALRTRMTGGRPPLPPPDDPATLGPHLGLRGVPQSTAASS
Sequence of Proto-oncogene tyrosine-protein kinase Src (P12931 2-536 limits assumed): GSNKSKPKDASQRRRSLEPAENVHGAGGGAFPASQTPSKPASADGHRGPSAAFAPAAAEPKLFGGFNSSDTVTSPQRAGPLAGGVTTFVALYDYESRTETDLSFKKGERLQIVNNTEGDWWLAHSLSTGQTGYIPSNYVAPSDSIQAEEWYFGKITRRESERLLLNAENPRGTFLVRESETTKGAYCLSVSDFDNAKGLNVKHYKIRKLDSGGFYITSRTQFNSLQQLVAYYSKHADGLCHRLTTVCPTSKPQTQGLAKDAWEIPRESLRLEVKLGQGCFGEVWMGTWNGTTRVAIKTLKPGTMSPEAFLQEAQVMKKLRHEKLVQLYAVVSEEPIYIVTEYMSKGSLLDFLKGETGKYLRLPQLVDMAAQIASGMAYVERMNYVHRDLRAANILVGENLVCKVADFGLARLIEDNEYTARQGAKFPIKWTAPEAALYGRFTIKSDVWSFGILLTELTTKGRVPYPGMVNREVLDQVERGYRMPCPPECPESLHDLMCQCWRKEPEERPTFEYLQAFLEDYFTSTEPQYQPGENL
Sequence of Mitogen-activated protein kinase 10 (P53779 whole entry): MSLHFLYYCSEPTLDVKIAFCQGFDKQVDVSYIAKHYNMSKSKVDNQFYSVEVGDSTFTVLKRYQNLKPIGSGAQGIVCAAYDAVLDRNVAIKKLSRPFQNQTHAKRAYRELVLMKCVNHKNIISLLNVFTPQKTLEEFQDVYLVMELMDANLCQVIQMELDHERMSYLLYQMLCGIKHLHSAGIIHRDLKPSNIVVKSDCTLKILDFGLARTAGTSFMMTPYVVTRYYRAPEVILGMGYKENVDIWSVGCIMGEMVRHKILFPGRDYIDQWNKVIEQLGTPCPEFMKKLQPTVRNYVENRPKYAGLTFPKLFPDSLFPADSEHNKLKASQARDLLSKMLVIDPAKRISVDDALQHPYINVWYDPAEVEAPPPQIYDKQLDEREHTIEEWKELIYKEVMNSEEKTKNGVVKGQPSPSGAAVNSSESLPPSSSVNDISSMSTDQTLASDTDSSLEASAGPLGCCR
Sequence of Aurora kinase B (Q96GD4 whole entry): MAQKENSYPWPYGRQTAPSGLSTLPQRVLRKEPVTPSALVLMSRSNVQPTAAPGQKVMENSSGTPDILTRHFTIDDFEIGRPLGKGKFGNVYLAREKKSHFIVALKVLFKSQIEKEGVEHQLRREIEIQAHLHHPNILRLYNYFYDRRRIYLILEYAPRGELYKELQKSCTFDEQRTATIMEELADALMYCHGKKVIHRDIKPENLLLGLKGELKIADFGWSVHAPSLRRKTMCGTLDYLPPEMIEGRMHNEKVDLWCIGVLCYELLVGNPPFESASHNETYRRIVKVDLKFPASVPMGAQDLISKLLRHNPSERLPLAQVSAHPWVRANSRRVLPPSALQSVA
Sequence of Dual specificity testis-specific protein kinase 1 (Homo sapiens) (Q15569 whole entry, looked up): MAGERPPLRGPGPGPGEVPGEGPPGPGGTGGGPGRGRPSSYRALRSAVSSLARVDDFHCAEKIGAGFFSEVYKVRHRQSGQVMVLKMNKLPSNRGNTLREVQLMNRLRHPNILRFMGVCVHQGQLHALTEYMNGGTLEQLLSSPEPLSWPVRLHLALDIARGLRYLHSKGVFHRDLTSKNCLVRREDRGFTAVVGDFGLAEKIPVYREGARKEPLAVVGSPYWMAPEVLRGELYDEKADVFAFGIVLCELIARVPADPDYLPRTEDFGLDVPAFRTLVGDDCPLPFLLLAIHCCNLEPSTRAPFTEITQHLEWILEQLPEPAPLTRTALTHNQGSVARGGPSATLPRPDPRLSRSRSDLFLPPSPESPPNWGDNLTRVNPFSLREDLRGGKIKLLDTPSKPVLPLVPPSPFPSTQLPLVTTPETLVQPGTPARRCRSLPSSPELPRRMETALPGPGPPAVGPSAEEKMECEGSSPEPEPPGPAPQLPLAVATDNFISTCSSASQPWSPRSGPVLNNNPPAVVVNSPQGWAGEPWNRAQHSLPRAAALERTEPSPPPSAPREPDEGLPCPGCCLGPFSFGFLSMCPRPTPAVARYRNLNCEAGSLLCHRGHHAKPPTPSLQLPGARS

SMILES: COc1cc(Nc2nc(C)cc(-c3cnn4nc(OC)ccc34)n2)cc(C(F)(F)F)c1
IC50 [1]: > 10 µM

% of inhibition [2]: 17.4%
SMILES: CC[C@@H]1[C@H](F)C(=O)N[C@@H]1COc1nccc2cc(C(N)=O)c(OC)cc12 [ZIMLOVISERTIB]

% of inhibition [3]: 3.44%
SMILES: Cn1cc(-n2cnc3c(NCc4nc5cc(Cl)c(Cl)cc5[nH]4)nc(N4CCOCC4)nc32)cn1

% of control [4]: 100%
% of control [5]: 100%
SMILES: CCN(CC)CCCCNc1ncc2cc(-c3cc(OC)cc(OC)c3)c(NC(=O)NC(C)(C)C)nc2n1

SMILES: Nc1cnc(N2CCc3cc(S(=O)(=O)Nc4c(F)cc(Cl)cc4F)cc(N4CCCC4=O)c32)nc1 [TP-020n]
% of control [6]: 94%

SMILES: CNC(=O)Nc1ccc(-c2nc(N3CC4CCC(C3)O4)c3cnn(C4CCC5(CC4)OCCO5)c3n2)cc1
% of inhibition [7]: -4%
% of control [8]: 85%
% of control [9]: 80%

SMILES: C=CC(=O)Nc1ccc(C(=O)Nc2[nH]nc3c2CN(C(=O)N[C@H](CN(C)C)c2ccccc2)C3(C)C)cc1
% of engagement ([10]; Selectivity number of off-targets 0.0, Selectivity number of targets 233.0, Source Knowledge https://www.sciencedirect.com/science/article/pii/S2451945619300674?via%3Dihub): -1.5%
% of engagement [10]: -1.9%
